Results on seven molecules are retold here after patent publication US12702654B2, “Compositions and methods for treating homocystinuria and other conditions using polyamines” (THE REGENTS OF THE UNIVERSITY OF COLORADO, priority 2020, dated 2026).

Series [1] relates to HO HCU mice. Nature of the series: Plasma metabolite levels (tHcy, methionine cycle amino acids, SAM, SAH) in HO HCU mice. As to conditions: for plasma Hcy / plasma cysteine levels: HO mice, about 3.0% (w/v) in drinking water ad libitum, normal methionine diet. In kind it is in vivo, mouse. Here is the method:
It is noted that WT mice (n=6) include untreated controls. HO HCU mice (N=8, 4 of each sex in each group) were either untreated or treated with about 3.0% (w/v) glycine w/v or about 3.0% (w/v) serine given in drinking water supplied ad libitum for one week. Plasma samples were taken and Hcy and cysteine levels were determined. *** denotes a P value <0.0001.
In accordance with these methods, HO HCU mice (N=8, 4 of each sex in each group) were treated with either about 3.0% glycine w/v or about 3.0% w/v serine given in drinking water supplied ad libitum for one week in the presence and absence of about 3.0% w/v betaine. Plasma samples were taken from the mice at various times and Hcy levels were determined.
Plasma Hcy levels were determined from HO HCU mice (n=8 per group) in the presence and absence of either about 5.0% w/v sodium formate alone or in combination with about 3.0% betaine given in drinking water given ad libitum.
In one exemplary method, mice were given zinc in drinking water. For this example, 8 HO HCU mice were provided drinking water supplemented with zinc (e.g. 0.05% w/v Zinc sulfate) given ad libitum for one week.
(§1) In another exemplary method, the transsulfuration pathway and methionine-folate cycle pathways, as show in the sematic illustrated in FIG. 18A, were assessed. In brief, three experimental groups (n=8 for each group) of male mice consisting of either untreated WT controls or HO HCU mice in the presence or absence of betaine treatment. Betaine was administered by dissolving the compound in drinking water at 30 g/l and was supplied ad libitum to the mice for one week. Treatment water was replenished twice per week.
A comparative reference data set was generated for these mice by examining plasma levels of tHcy, methionine, cysteine, serine, glycine, dimethylglycine, methylglycine (MG, SAM and SAH). In brief, determination of plasma levels of amino acids relevant to the methionine cycle were determined using methods similar to those described in Stabler et al., Blood. 81 (1993) 3404-3413, incorporated in its entirety herein. Determination of hepatic 5-methylTHF was performed by liquid chromatography-tandem mass spectrometry using methods similar to those described in Witham et al., PLoS One. 8 (2013) e77923, incorporated in its entirety herein. The global metabolomic analysis of methionine and folate cycle related metabolites was carried out by Metabolon, Inc. Briefly, sample preparation was performed utilizing the automated MicroLab STAR® system. Sample preparation was performed using a proprietary series of organic and aqueous extractions to remove the protein fraction while allowing maximum recovery of small molecules. The resulting extract was divided into two fractions: one for analysis by liquid chromatography and one for analysis by gas chromatography. Each sample was then frozen and dried under vacuum. The LC/mass spectrometer portion of the platform was based on a Waters ACQUITY UPLC and a Thermo-Finnigan LTQ mass spectrometer, which consisted of an electrospray ionization source and linear ion-trap mass analyzer. Samples were analyzed on a Thermo-Finnigan Trace DSQ fast-scanning single-quadrupole mass spectrometer using electron impact ionization. Identification of known chemical entities was based on comparison to library entries of authenticated standards. Tissue polyamines putrescine, spermidine and spermine and 5-methylthioadenosine (MTA) were determined by liquid chromatography-tandem mass spectrometry using methods similar to those described in Stevens et al., J Chromatogr A 1217 (2010) 3282-3288, incorporated in its entirety herein.

The subject of another series is Cbs null mouse. In words: Cbs null mouse model (Hcy, survival, liver injury). In kind it is in vivo. As to conditions: severe liver damage abolished BHMT-mediated betaine response. The source says:
In another exemplary method, an acceptable mouse mode of HCU was used to study various effects of exemplary compositions disclosed herein on aberrant Hcy levels. To date, the majority of research on HCU had been performed using a CBS knockout mouse model. These Cbs (−/−) animals experienced pronounced liver injury and typically die within 2-3 weeks of birth.
In another exemplary method, agents were used to verify involvement of BHMT in the homocystinuria treatment process. In these exemplary methods, a Cbs null mouse was used where severe liver damage to the mouse model interferes with standard HCU treatments to reduce Hcy.

For the next series, the system named is DMGDH. In words: Western blotting of hepatic DMGDH protein levels. The format is in vivo, mouse. As to conditions: HO HCU mice, about 5.0% sodium formate alone or with about 3.0% betaine in drinking water, about one week. The source says: As shown in FIGS. 12A-12B, a Western blot comparing the level of DMGDH and GAPDH (control) for untreated (HO), treated (e.g. formate agent) and treated with standard treatment combinations (e.g. formate and trimethylglycine (e.g. betaine)) using the HCU mouse model (FIG. 12A); and further illustrating in a histogram plot (FIG. 12B), level of intensity of DMDGH for untreated (HO), treated (e.g. formate agent) and treated with standard treatment combinations (e.g. formate and trimethylglycine (e.g. betaine)) using the HCU mouse model in certain embodiments disclosed herein. Western blotting analysis of hepatic DMGDH protein levels in HO HCU mice in the presence and absence of either about 5.0% sodium formate alone or in combination with about 3.0% betaine given ad libitum in drinking water for about one week. N=9 per group. This figure is representative of three independent experiments.

The subject of series [2] is HO HCU mice. In words: Tail bleeding time / hypercoagulative phenotype in HO HCU mice. In kind it is in vivo, mouse. As to conditions: 4 mM solution in drinking water ad libitum, one week. Here is the method: In another exemplary method, effect of polyamines (e.g. spermidine and spermine) on the hypercoagulative phenotype induced by HCU was assessed which is a measure of treatment for genetic HCU where rapid coagulation is a side effect of these conditions. In brief, mice containing both the human CBS transgene and no functional copy of the mouse equivalent gene were identified by PCR from the litters of progeny of 11181×MKO^+/− F1 mice backcrossed to MKO^+/− mice. These mice were designated as “human only” (HO) mice and used as a human model of HCU. […] In order to further investigate the possible therapeutic potential of polyamine (e.g. spermidine and spermine) therapy in HCU, WT and HO HCU mice were given either: […]; […] in drinking water given ad libitum; or drinking water (untreated, control). After one week, tail bleeding times were determined for untreated wild type (WT) control B6 mice and HO HCU mice from all treatment groups.

For another series, the system named is SAHH. Nature of the series: Western blotting of hepatic SAHH expression. The format is in vivo, mouse. As to conditions: HO mice, 30 g/l in drinking water ad libitum, one week. Here is the method: (§2) To investigate the effects of these treatments upon the hepatic regulatory changes in enzyme expression induced by HCU, the human transgenic HO mouse model of HCU was used. In brief, experimental groups consisting of 8 HO mice on a C57BL/6J background and 8 C57BL/6J WT littermate control mice bred in house were used. Mice in both groups were male and aged between 3 and 4 months. Except where otherwise stated, all mice were maintained on standard chow. All diets were administered using a paired-feeding design to ensure isocaloric intake between all experimental groups and body weights were measured once per week. There was no significant difference in body weight between mice in any of the experimental groups. Betaine and taurine were in this example, both administered by dissolving these compounds in drinking water at 30 g/l (2% or 3% w/v) and were supplied ad libitum for one week. Treatment water was replenished twice per week.
(§3) Western blotting analysis of SAHH, MTHFR and SHMT2 expression was performed in liver samples from HO mice in the presence and absence of betaine or taurine treatment.

In a further series the test system is SHMT1. Nature of the series: Western blotting of hepatic SHMT1 expression. The format is in vivo, mouse. As to conditions: HO mice, 30 g/l in drinking water ad libitum, one week. Here is the method: as §2
(§4) These observations are the first to report betaine and taurine acting to regulate expression of these processes. Therefore, this observation supports that taurine alone or in combination with betaine and other treatments for genetic homocystinuria are viable options for avoiding dietary restraints and treating these conditions.

The next series relates to SHMT2. Nature of the series: Western blotting of hepatic SHMT2 expression. The format is in vivo, mouse. The conditions noted are these: HO mice, 30 g/l in drinking water ad libitum, one week. Here is the method: as §2, §3
Background: A western blot detects proteins with antibodies after separation by electrophoresis.

For series [3] the following is noted: mouse, in vivo. Here is the method: as §1
as §2, with “Betaine and taurine were in this example, both administered by dissolving these compounds in drinking water at 30 g/l (2% or 3% w/v) and were supplied ad libitum for one week. Treatment water was replenished twice per week.” left out

The test system of another series is MAT1A. In words: Western blotting of hepatic MAT1A expression. In kind it is in vivo, mouse. The conditions noted are these: HO HCU mice, 30 g/l in drinking water ad libitum, one week. Here is the method:
as §2, §4

The test system of a further series is GNMT. In words: Western blotting of hepatic GNMT expression. The conditions noted are these: HO HCU mice, 30 g/l in drinking water ad libitum, one week. In kind it is in vivo, mouse. The procedure: as §2, §4
Series [4] deals with HO HCU mice. Nature of the series: Plasma metabolite levels (tHcy, methionine cycle amino acids, SAM, SAH) in HO HCU mice. The format is in vivo, mouse. As to conditions: taurine treatment.
A further series deals with MTHFR. Nature of the series: Western blotting of hepatic MTHFR expression. The format is in vivo, mouse. The conditions noted are these: HO mice, 30 g/l in drinking water ad libitum, one week. The procedure:
as §2, §3

Series [5] relates to cysteine oxidation pathways. In words: Cysteine oxidation pathways in HCU (HO model). The conditions noted are these: 30 g/l in drinking water, one week. In kind it is in vivo, mouse. The procedure: as §2
Series [6] has as its system HO HCU mice. The conditions noted are these: taurine supplementation; cited from earlier work.
In another series the test system is glutathione. As to conditions: taurine supplementation; cited from earlier work.
In another series the test system is human HCU patients. As to conditions: taurine supplementation; cited from earlier work.

As to `O=S(=O)([O-])[O-].[Zn+2]` [Zinc sulfate], the “decrease in plasma homocysteine” value in the series on HO HCU mice [1] (8 HO HCU mice, 0.05% w/v Zinc sulfate in drinking water ad libitum, one week, p<0.001) turned out to be 25%.

`NCC(=O)O` [glycine]: in the series on HO HCU mice [1] (one week), the “plasma Hcy” value is listed as “significantly lowered” and the plasma cysteine levels result is “increased”. In the series on Cbs null mouse, the “Hcy in Cbs null mouse model” value was “unable to lower Hcy”.

Regarding `N[C@@H](CO)C(=O)O` [serine], in the series on HO HCU mice [1] (one week), the “plasma Hcy” value is reported as “significantly lowered” and the plasma cysteine levels result is “increased”. Also, the “Hcy in Cbs null mouse model” value with Cbs null mouse is “unable to lower Hcy”.

Take `O=C[O-].[Na+]` [sodium formate]: in the series on HO HCU mice [1] (HO HCU mice, about 5.0% w/v sodium formate alone or with about 3.0% betaine in drinking water ad libitum, normal methionine/protein diet), the “plasma Hcy levels” value is “significantly lowered”. In the series on DMGDH, the “hepatic DMGDH expression levels” value is “restore normal expression levels”. For the same molecule, the “Hcy in Cbs null mouse model” value in the series on Cbs null mouse was “unable to lower Hcy”.

Take `NCCCCNCCCN` [spermidine]: the “clotting time (tail bleeding time) compared to untreated HO mice” value with HO HCU mice [2] is reported as “highly significant increase in clotting time”.

Consider `NCCCNCCCCNCCCN` [spermine], for which, in the series with HO HCU mice [2], the “clotting time (tail bleeding time) compared to untreated HO mice” value was “significantly ameliorated”.

As for `NCCS(=O)(=O)O` [taurine], in the series with SAHH, the “HCU-mediated induction of hepatic SAHH expression” value is reported as “essentially identical reversal”. Further, the “increase in hepatic SHMT1 expression” value in the series with SHMT1 stood at 35%. Also, the “HCU-induced repression of hepatic SHMT2” value with SHMT2 is on record as “essentially identical reversal”. In addition, in series [3], the tolerability of doses entry is listed as “well tolerated”. For the same molecule, in the series on MAT1A, the “hepatic MAT1a expression” value is reported as “induced expression”. The “hepatic GNMT expression” value with GNMT is reported as “induced expression”. In the series on HO HCU mice [4], the “effect upon lowering plasma tHcy levels” value was “only a mild effect”. Besides, in the series on MTHFR, the “HCU-mediated induction of hepatic MTHFR expression” value is listed as “essentially identical reversal”. Moreover, the “dysregulation of cysteine oxidation pathways in HCU” value in series [5] was “ameliorate the dysregulation of cysteine oxidation pathways”. For the same molecule, the “efficacy of betaine treatment in mice” value in the series with HO HCU mice [6] is recorded as “enhances the efficacy of betaine treatment”. In the series on glutathione, the “HCU-induced disturbances in glutathione metabolism and the gamma-glutamyl cycle” value is on record as “effectively normalized”. For the same molecule, the “endothelial dysfunction in human HCU patients” value in the series on human HCU patients is listed as “completely ablate endothelial dysfunction”.
